Assay results from US20250032485A1, “APPLICATION OF IMIDAZO [1,2-A] PYRAZINE COMPOUNDS OR THEIR PHARMACEUTICALLY ACCEPTABLE SALTS IN THE PREPARATION OF ANTI-CORONAVIRUS DRUGS” (GUANGZHOU MEDICAL UNIVERSITY, priority 2023, published 2025).

These molecules were tested against PLpro of SARS-CoV-2 (Severe acute respiratory syndrome coronavirus 2, UniProt P0DTD1) (assay: Enzyme activity test in vitro: inhibition of PLpro at fixed concentration 50 μM (RLRGG-AMC substrate)). Conditions: read-out: Inhibition rate at 50 μM (%).
Assay type: biochemical

Q: For `CCNC(=O)c1ccc(Nc2c(-c3ccc(C)cc3)nc3cnccn23)cc1` [P22412, N-ethyl-4-[[2-(4-methylphenyl)imidazo [1,2-a]pyrazin-3-yl]amino]benzamide], which inhibition at 50 µM is on record?
A: 33.5%

Q: How did the inhibition at 50 µM turn out when `O=C(NCCN1CCOCC1)c1ccc(Nc2c(-c3ccc(Cl)cc3)nc3cnccn23)cc1` [P22413, 4-[[2-(4-chlorophenyl)imidazo[1,2-a]pyrazin-3-yl]amino]-N-(2-morpholin-4-ylethyl)benzamide] was run?
A: 36.1%

Q: Which inhibition at 50 µM does the source give for `CNC(=O)c1cccc(Nc2c(-c3ccccc3)nc3cnccn23)c1` [P22416, N-methyl-3-[(2-phenylimidazo[1,2-a]pyrazin-3-yl)amino] benzamide] here?
A: 30.2%

Q: How did the inhibition at 50 µM turn out when `CSc1ccc(-c2nc3cnccn3c2Nc2cccc(C(=O)NC(C)C)c2)cc1` [P22417, 3-[[2-(4-methyl-sulfanylphenyl)imidazo [1,2-a]pyrazin-3-yl]amino]-N-propan-2-ylbenzamide] was run?
A: 43.4%

Q: How did the inhibition at 50 µM turn out when `CSc1ccc(-c2nc3cnccn3c2Nc2cccc(C(=O)NCC3CCCO3)c2)cc1` (centres unmarked) [P22418, 3-[[2-(4-methyl-sulfanylphenyl)imidazo [1,2-a]pyrazin-3-yl]amino]-N-(oxolan-2-ylmethyl)benzamide] was run?
A: 34.5%

Q: With `COc1ccc(-c2nc3cnccn3c2Nc2ccc(C(=O)NC(C)C)cc2)cc1OC` [P22420, 4-[[2-(3,4-dimethoxy-phenyl)imidazo[1,2-a]pyrazin-3-yl]amino]-N-propan-2-ylbenzamide] as the molecule, how does the inhibition at 50 µM read?
A: 43.9%

Q: Which inhibition at 50 µM does the source give for `CSc1ccc(-c2nc3cnccn3c2Nc2ccc(C(=O)N3CCOCC3)cc2)cc1` [P22425, [4-[[2-(4-methyl-sulfanylphenyl)imidazo [1,2-a]pyrazin-3-yl]amino]phenyl]-morpholin-4-ylmethanone] here?
A: 40.7%

Q: Which inhibition at 50 µM does the source give for `O=C(NCCN1CCOCC1)c1cccc(Nc2c(-c3ccccc3)nc3cnccn23)c1` [P22427, N-[2-(1,4-oxazinan-4-yl)ethyl]-3-[(2-phenylimidazo[1,2-a]pyrazin-3-yl)amino] benzamide] here?
A: 22.8%

Q: Which inhibition at 50 µM does the source give for `O=C(c1cccc(Nc2c(-c3ccc(Cl)cc3)nc3cnccn23)c1)N1CCOCC1` [P22429, [3-[[2-(4-chlorophenyl)imidazo[1,2-a]pyrazin-3-yl]amino]phenyl]-morpholin-4-ylmethanone] here?
A: 24.7%

Q: `COc1ccc(-c2nc3cnccn3c2Nc2ccc(C(=O)NC(C)C)cc2)cc1` [P22432, 4-[[2-(4-methoxy-phenyl)imidazo[1,2-a]pyrazin-3-yl]amino]-N-propan-2-ylbenzamide] was tested. Which inhibition at 50 µM did it give?
A: 42.2%

Q: `CN(C)CCNC(=O)c1ccc(Nc2c(-c3ccccc3)nc3cnccn23)cc1` [P22433, N-[2-(dimethylamino)ethyl]-4-[(2-phenyl-imidazo[1,2-a]pyrazin-3-yl)amino] benzamide] was tested. Which inhibition at 50 µM did it give?
A: 30.5%

Q: How did the inhibition at 50 µM turn out when `Cc1ccc(-c2nc3cnccn3c2Nc2ccc(C(=O)NC3CCCCC3)cc2)cc1` [P22434, N-cyclohexyl-4-[[2-(4-methylphenyl)imidazo[1,2-a]pyrazin-3-yl]amino]benzamide] was run?
A: 41.1%

Q: How did the inhibition at 50 µM turn out when `O=C(NCc1ccco1)c1ccc(Nc2c(-c3ccccc3)nc3cnccn23)cc1` [P22435, N-(furan-2-ylmethyl)-4-[(2-phenylimidazo [1,2-a]pyrazin-3-yl)amino]benzamide] was run?
A: 23.9%

Q: For `CNC(=O)c1cccc(Nc2c(-c3ccc(SC)cc3)nc3cnccn23)c1` [P22436, N-methyl-3-[[2-(4-methylsulfanylphenyl)imidazo[1,2-a]pyrazin-3-yl]amino] benzamide], which inhibition at 50 µM is on record?
A: 31.3%

Q: `COc1ccc(-c2nc3cnccn3c2Nc2cccc(C(=O)NCCN3CCOCC3)c2)cc1` [P22437, 3-[[2-(4-methoxy-phenyl)imidazo[1,2-a]pyrazin-3-yl]amino]-N-(2-morpholin-4-ylethyl)benzamide] was tested. Which inhibition at 50 µM did it give?
A: 24.2%

Q: How did the inhibition at 50 µM turn out when `CSc1ccc(-c2nc3cnccn3c2Nc2cccc(C(=O)N3CCOCC3)c2)cc1` [P22439, [3-[[2-(4-methyl-sulfanylphenyl)imidazo [1,2-a]pyrazin-3-yl]amino]phenyl]-morpholin-4-ylmethanone] was run?
A: 23.2%

Q: With `COc1ccc(-c2nc3cnccn3c2Nc2ccc(C(=O)NCC3CCCO3)cc2)cc1OC` (centres unmarked) [P22440, 4-[[2-(3,4-dimethoxy-phenyl)imidazo[1,2-a]pyrazin-3-yl]amino]-N-(oxolan-2-ylmethyl)benzamide] as the molecule, how does the inhibition at 50 µM read?
A: 33.5%

Q: `CC(C)NC(=O)c1ccc(Nc2c(-c3ccc(Cl)cc3)nc3cnccn23)cc1` [P22442, 4-[[2-(4-chlorophenyl)imidazo[1,2-a]pyrazin-3-yl]amino]-N-propan-2-ylbenzamide] was tested. Which inhibition at 50 µM did it give?
A: 37.1%

Q: How did the inhibition at 50 µM turn out when `COc1ccc(-c2nc3cnccn3c2Nc2ccc(C(=O)NCCN(C)C)cc2)cc1` [P22443, N-[2-(dimethylamino)ethyl]-4-[[2-(4-methoxyphenyl)imidazo[1,2-a]pyrazin-3-yl]amino]benzamide] was run?
A: 41.2%

Q: For `O=C(c1ccc(Nc2c(-c3ccccc3)nc3cnccn23)cc1)N1CCCCC1` [P22444, [4-[(2-phenylimidazo [1,2-a]pyrazin-3-yl)amino]phenyl]-piperidin-1-ylmethanone], which inhibition at 50 µM is on record?
A: 43.9%

Q: Which inhibition at 50 µM does the source give for `CCNC(=O)c1cccc(Nc2c(-c3ccccc3)nc3cnccn23)c1` [P22446, N-ethyl-3-[(2-phenyl-imidazo[1,2-a]pyrazin-3-yl)amino] benzamide] here?
A: 44.4%

Q: `O=C(NCCN1CCOCC1)c1cccc(Nc2c(-c3ccc(Cl)cc3)nc3cnccn23)c1` [P22447, 3-[[2-(4-chlorophenyl)imidazo[1,2-a]pyrazin-3-yl]amino]-N-(2-morpholin-4-ylethyl)benzamide] was tested. Which inhibition at 50 µM did it give?
A: 41.9%

Q: Which inhibition at 50 µM does the source give for `CSc1ccc(-c2nc3cnccn3c2Nc2cccc(C(=O)NC3CCCCC3)c2)cc1` [P22448, N-cyclohexyl-3-[[2-(4-methylsulfanyl-phenyl)imidazo[1,2-a]pyrazin-3-yl]amino] benzamide] here?
A: 26.9%

Q: Which inhibition at 50 µM does the source give for `O=C(NCc1ccco1)c1cccc(Nc2c(-c3ccccc3)nc3cnccn23)c1` [P22449, N-(furan-2-ylmethyl)-3-[(2-phenylimidazo [1,2-a]pyrazin-3-yl)amino]benzamide] here?
A: 27.5%

Q: `COc1ccc(-c2nc3cnccn3c2Nc2ccc(C(=O)NC3CCCCC3)cc2)cc1OC` [P22450, N-cyclohexyl-4-[[2-(3,4-dimethoxyphenyl)imidazo[1,2-a]pyrazin-3-yl]amino] benzamide] was tested. Which inhibition at 50 µM did it give?
A: 20.8%

Q: How did the inhibition at 50 µM turn out when `CNC(=O)c1ccc(Nc2c(-c3ccccc3)nc3cnccn23)cc1` [P22451, N-methyl-4-[(2-phenyl-imidazo[1,2-a]pyrazin-3-yl)amino] benzamide] was run?
A: 34.7%

Q: With `Cc1ccc(-c2nc3cnccn3c2Nc2ccc(C(=O)NC(C)C)cc2)cc1` [P22452, 4-[[2-(4-methylphenyl)imidazo[1,2-a]pyrazin-3-yl]amino]-N-propan-2-ylbenzamide] as the molecule, how does the inhibition at 50 µM read?
A: 33.6%

Q: How did the inhibition at 50 µM turn out when `Cc1ccc(-c2nc3cnccn3c2Nc2ccc(C(=O)NCCN(C)C)cc2)cc1` [P22453, N-[2-(dimethylamino)ethyl]-4-[[2-(4-methylphenyl)imidazo [1,2-a]pyrazin-3-yl]amino]benzamide] was run?
A: 36.6%

Q: `COc1ccc(-c2nc3cnccn3c2Nc2ccc(C(=O)N3CCCCC3)cc2)cc1` [P22454, [4-[[2-(4-methoxy-phenyl)imidazo[1,2-a]pyrazin-3-yl]amino]phenyl]-piperidin-1-ylmethanone] was tested. Which inhibition at 50 µM did it give?
A: 31.8%

Q: How did the inhibition at 50 µM turn out when `Cc1ccc(-c2nc3cnccn3c2Nc2ccc(C(=O)NCc3ccco3)cc2)cc1` [P22455, N-(furan-2-ylmethyl)-4-[[2-(4-methyl-phenyl)imidazo[1,2-a]pyrazin-3-yl]amino] benzamide] was run?
A: 40.1%

Q: How did the inhibition at 50 µM turn out when `CCNC(=O)c1cccc(Nc2c(-c3ccc(Cl)cc3)nc3cnccn23)c1` [P22456, 3-[[2-(4-chlorophenyl)imidazo[1,2-a]pyrazin-3-yl]amino]-N-ethylbenzamide] was run?
A: 30.3%

Q: `CN(C)CCNC(=O)c1cccc(Nc2c(-c3ccc(Cl)cc3)nc3cnccn23)c1` [P22457, 3-[[2-(4-chlorophenyl)imidazo[1,2-a]pyrazin-3-yl]amino]-N-[2-(dimethylamino)ethyl]benzamide] was tested. Which inhibition at 50 µM did it give?
A: 38.6%

Q: `O=C(c1cccc(Nc2c(-c3ccccc3)nc3cnccn23)c1)N1CCCCC1` [P22458, [3-[(2-phenylimidazo [1,2-a]pyrazin-3-yl)amino]phenyl]-piperidin-1-ylmethanone] was tested. Which inhibition at 50 µM did it give?
A: 35.5%

Q: How did the inhibition at 50 µM turn out when `COc1ccc(-c2nc3cnccn3c2Nc2cccc(C(=O)NCc3ccco3)c2)cc1` [P22459, N-(furan-2-ylmethyl)-3-[[2-(4-methoxy-phenyl)imidazo[1,2-a]pyrazin-3-yl]amino]benzamide] was run?
A: 35.4%

Q: `COc1ccc(-c2nc3cnccn3c2Nc2ccc(C(=O)N3CCCCC3)cc2)cc1OC` [P22460, [4-[[2-(3,4-dimethoxy-phenyl)imidazo[1,2-a]pyrazin-3-yl]amino]phenyl]-piperidin-1-ylmethanone] was tested. Which inhibition at 50 µM did it give?
A: 31.8%

Q: For `CCNC(=O)c1ccc(Nc2c(-c3ccccc3)nc3cnccn23)cc1` [P22461, N-ethyl-4-[(2-phenyl-imidazo[1,2-a]pyrazin-3-yl)amino] benzamide], which inhibition at 50 µM is on record?
A: 32.3%

Q: With `CSc1ccc(-c2nc3cnccn3c2Nc2ccc(C(=O)NC(C)C)cc2)cc1` [P22462, 4-[[2-(4-methyl-sulfanylphenyl)imidazo [1,2-a]pyrazin-3-yl]amino]-N-propan-2-ylbenzamide] as the molecule, how does the inhibition at 50 µM read?
A: 40.7%

Q: For `O=C(NCC1CCCO1)c1ccc(Nc2c(-c3ccccc3)nc3cnccn23)cc1` (centres unmarked) [P22463, N-(oxolan-2-ylmethyl)-4-[(2-phenylimidazo [1,2-a]pyrazin-3-yl)amino]benzamide], which inhibition at 50 µM is on record?
A: 25.8%

Q: How did the inhibition at 50 µM turn out when `Cc1ccc(-c2nc3cnccn3c2Nc2ccc(C(=O)N3CCCCC3)cc2)cc1` [P22464, [4-[[2-(4-methyl-phenyl)imidazo[1,2-a]pyrazin-3-yl]amino]phenyl]-piperidin-1-ylmethanone] was run?
A: 29.6%

Q: How did the inhibition at 50 µM turn out when `CSc1ccc(-c2nc3cnccn3c2Nc2ccc(C(=O)NCc3ccco3)cc2)cc1` [P22465, N-(furan-2-ylmethyl)-4-[[2-(4-methyl-sulfanylphenyl)imidazo [1,2-a]pyrazin-3-yl]amino]benzamide] was run?
A: 29.6%

Q: With `CCNC(=O)c1cccc(Nc2c(-c3ccc(SC)cc3)nc3cnccn23)c1` [P22466, N-ethyl-3-[[2-(4-methylsulfanylphenyl)imidazo[1,2-a]pyrazin-3-yl]amino] benzamide] as the molecule, how does the inhibition at 50 µM read?
A: 22.2%
